Results reported in patent US20020058077A1, “Cancer chemotherapeutical and chemopreventive agent” (priority 2000, published 2002).
*1 amine or outer side, *2 acyl side, *3 side chain or, on linkers, in order; H or OH if unused. Where a SMILES comes first, the peptide text is derived from it. Bridges are numbered along the chain shown (N, C = ends). Roman numbers before positions name the chains, in order. [ ]: non-standard residue; d: D form. Actinocin(9to1) = Cc1c2oc3c(C)ccc(C(=O)[*:1])c3nc-2c(C(=O)[*:2])c(N)c1=O; NMeV = CN[C@H](C(=O)O)C(C)C; Sar = CNCC(=O)O

How the values were obtained:
[1] = test system: CNE1 cells; conditions: for apoptotic cell death in TNF-α treated cells after pretreatment: PDTC 25 μM, Act D 5 μg/ml, CHX 5 μg/ml or NS398 10 μM × 30 min
Protocol: (§1) TNF-α (final concentration 15 ng/ml) was used as the positive stimulus to promote NF-κB activation in cultured cells.
Apoptosis was determined by the following assays: (i) cell morphological alterations examined under an inverted microscope, (ii) PARP cleavage determined by western blot, and (iii) TUNEL assay which was analysed using both flow cytometry and confocal microscope (Shen et al., 2000), in both attached and detached cells after various treatments.

[2] = test system: COX-2; assay: RT-PCR analysis of COX-2 mRNA in TNF-α treated CNE1 cells; conditions: Act D 5 μg/ml × 30 min; TNF-α 15 ng/ml × 6 h
Protocol: as §1
RNA extraction was carried out using a total RNA extraction kit (TRIzol, Life Technologies). Briefly, cells were collected by scrapping after various treatments and washed with cold PBS once before they were lysed in the TRIzol reagent. […] Finally the RNA samples were dissolved in DEPC-H2O and quantified (1 A260=40 μg/ml). Five micrograms of total RNA from each sample were subjected to reverse transcription using Superscript II reverse transcriptase (Life Technologies) in a total volume of 50 μl. For PCR, all the amplification reactions were carried out in 20 μl which included 200 pmol of each primers, 200 μM of each dNTPs, and 0.5 units of DyNAzyme II. The PCR was performed for 30 cycles, using a program of 95° C. for 30 sec, 57° C. for 30 sec, and 72° C. for 30 sec, followed by a 10 min extension at 72° C., in a Biometra T-gradient Thermal Cycler. […] The PCR conditions were optimised to achieve exponential amplification in which the PCR product formation is proportional to the starting cDNA.

[3] = test system: NF-κB; assay: NF-κB luciferase reporter gene assay in transfected CNE1 cells; type: cell-based, human; conditions: PDTC 25 μM, Act D 5 μg/ml or CHX 5 μg/ml × 30 min; TNF-α 15 ng/ml × 24 h; order PDTC <Act D <CHX
Protocol: The pNF-κB-luc vector and the negative control pTAL-luc vector were purchased as part of the Mercury Pathway Profiling Luciferase System from Clontech Laboratories. […] The transient transfection of the above plasmids into cultured CNE1 cells were performed using TransFast™ Transfection Reagent (Promega) according to the manufacturer's protocol. Briefly, when cells reached about 80% confluence in 24-well plates (approximately 10×10^4 cells per well in 0.5 ml culture medium), the growth medium from each well was removed by aspiration. […] After incubated for 1 h at 37° C., 300 μl of prewarmed complete medium was added into each well and incubated for 24 h. Transfected cells were then subjected to various treatments. The luciferase activity was measured in the cellular extracts using a luciferase assay kit (Promega). Following the treatment, the cell lysate was collected from each well after the addition of 1× cell culture lysis reagent (50 μl/well, Promega). The relative light units (RLU) were then determined in a luminometer (Lumi-one, Trans Orchid, Tampa, Fla.) for a total period of 15 sec after a 5 sec delay time.

[4] = test system: COX-2; assay: COX-2 protein level in TNF-α treated CNE1 cells by western blot; conditions: CHX 5 μg/ml × 30 min; TNF-α 15 ng/ml × 24 h
Protocol: as §1
Various cell extracts (cytosolic, nuclear or whole cell) were prepared as described earlier. Equal amounts (30 μg) of protein were separated on SDS-polyacrylamide gel in the Mini-PROTEAN II system (Bio-Rad). After electrophoresis, the protein was transferred onto a Hybond-C nitrocellulose membrane (Amersham) at 4° C. using the Mini Trans-Blot Module (Bio-Rad). The membrane was blocked overnight with 5% nonfat milk in TBST (10 mM Tris-HCl, pH 7.5, 100 mM NaCl, 0.1% Tween 20), and then incubated with various primary antibodies for 2 h at room temperature. After 5 washes with TBST, the membrane was exposed to respective secondary antibodies for 1 h. The blots were detected using the enhanced chemiluminescence method (Pierce).

[5] = test system: PGE2 production; assay: PGE2 level released from CNE1 cells by enzyme immunoassay (EIA); type: cell-based, human
Protocol: The PGE2 level in the cell culture medium after various treatments was determined using an EIA kit (Cayman) according to protocol from the manufacturer. Each sample was assayed at two dilutions and each dilution in triplets. The results were presented as the fold of increase comparing to that of the control group.

[6] = Act D 5 μg/ml × 30 min pretreatment, then TNF-α 15 ng/ml × 24 h

| Compound | PARP cleavage [1, 6] | detached apoptotic cells [1, 6] | apoptotic cell death in TNF-α treated cells after pretreatment ([1]; then TNF-α 15 ng/ml × 24 h) | COX-2 mRNA level [2] | NF-κB dependent transcription (luciferase) [3] | COX-2 protein level [4] | PGE2 production ([5]; NS398 10 μM × 30 min, TNF-α 15 ng/ml × 24 h) | potency for the inhibition of PGE2 production compared with parthenolide ([5]; TNF-α treated CNE1 cells) | apoptosis induction compared with parthenolide ([1]; TNF-α treated CNE1 cells) |
| --- | --- | --- | --- | --- | --- | --- | --- | --- | --- |
| Cc1c2oc3c(C)ccc(C(=O)N[C@@H]4C(=O)N[C@H](C(C)C)C(=O)N5CCC[C@H]5C(=O)N(C)CC(=O)N(C)[C@@H](C(C)C)C(=O)O[C@@H]4C)c3nc-2c(C(=O)N[C@@H]2C(=O)N[C@H](C(C)C)C(=O)N3CCC[C@H]3C(=O)N(C)CC(=O)N(C)[C@@H](C(C)C)C(=O)O[C@@H]2C)c(N)c1=O [Act D, actinomycin D] (I: T[dV]P[Sar][NMeV] / II: T[dV]P[Sar][NMeV]; ester I:1-I:C, II:1-II:C; linker I:N-II:N via Actinocin(9to1)) | complete cleavage | ~100% | severe apoptosis | markedly reduced |  |  |  |  |  |
| C[C@@H]1C[C@@H]([C@H](O)CC2CC(=O)NC(=O)C2)C(=O)[C@@H](C)C1 [CHX, cycloheximide] |  |  | severe apoptosis |  | capable of inhibiting | Significant reduction |  |  |  |
| CS(=O)(=O)Nc1ccc([N+](=O)[O-])cc1OC1CCCCC1 [NS398] |  |  | significantly enhanced |  |  |  | completely abolished | higher potency | less effective |
